Patent publication US9663533B2, “Thieno[3,2-C]pyridin-4(5H)-ones as BET inhibitors” (GlaxoSmithKline LLC, priority 2012, dated 2017)
Structures can show the parent of a compound that is named as a salt.

Tested on: LPS induced IL-6 secretion from human whole blood
Assay: Quantification of LPS induced IL-6 secretion from human whole blood
Format: cell-based
Details: LPS 200 ng/mL, 24 hours, MSD ELISA, read-out: pIC50, LPS induced IL-6 secretion (converted)
Excerpt: Quantification of LPS Induced IL-6 Secretion from Human Whole Blood
Activation of monocytic cells by agonists of toll-like receptors such as bacterial lipopolysaccharide (LPS) leads to the activation of intracellular signaling pathways resulting in the production of key pro-inflammatory mediators including IL-6. Such pathways are widely considered to be central to the pathophysiology of a range of auto-immune and inflammatory disorders.
The impact of bromodomain inhibitors on IL-6 release was assessed in an LPS-stimulated human whole blood assay. Briefly, serial dilutions of test compounds were prepared in DMSO and 1 μL of the diluted compounds or vehicle (DMSO) was added to each well in a 96-well cell culture plate. Fresh blood was collected in heparinized tubes by venipuncture from volunteers with consent, and 130 uL/well was added in the culture plate already containing the compounds. The plates were then incubated for 30 min at 37° C. and 5% CO2 before the addition of 10 μl of 2.8 μg/mL LPS diluted in 1% BSA (LPS from Salmonella typhosa; Sigma L 6386 at a final concentration of 200 ng/mL). After further incubation for 24 hours at 37° C. and 5% CO2, 140 μl of PBS were added to each well. The plates were then sealed, shaken for 10 minutes and then centrifuged for 10 minutes at 2000 rpm. 100 μl of the supernatant were removed and IL-6 levels quantified using an MSD ELISA (MesoScale Discovery technology). Concentration response curves for each compound were generated and an IC50 values were calculated.

Row | SMILES | IC50 [µM]
1 | CC(Oc1cncc(-c2cn(C)c(=O)c3cc(CN4CCN(S(C)(=O)=O)CC4)sc23)c1)c1ccccn1 (racemic) [Example 3, (±)-5-methyl-2-((4-(methylsulphonyl)piperazin-1-yl)methyl)-7-(5-(1-(pyridin-2-yl)ethoxy)pyridin-3-yl)thieno[3,2-c]pyridin-4(5H)-one] | ≤ 10
2 | CN1CCCN(Cc2cc3c(=O)n(C)cc(-c4cccc(OCc5ccccc5)c4)c3s2)CC1 [Example 40, 7-(3-(benzyloxy)phenyl)-5-methyl-2-((4-methyl-1,4-diazepan-1-yl)methyl)thieno[3,2-c]pyridin-4(5H)-one, Hydrochloride] | ≤ 10
3 | CC(=O)Nc1cc(-c2cn(C)c(=O)c3cc(CN4CCN(S(C)(=O)=O)C[C@H]4C)sc23)ccn1 [Example 119, (R)-N-(4-(5-methyl-2-((2-methyl-4-(methylsulphonyl)piperazin-1-yl)methyl)-4-oxo-4,5-dihydrothieno[3,2-c]pyridin-7-yl)pyridin-2-yl)acetamide] | ≤ 10
4 | C[C@@H]1CN(S(C)(=O)=O)CCN1Cc1cc2c(=O)n(C)cc(-c3ccncc3OCC3CC3)c2s1 [Example 168, (R)-7-(3-(cyclopropylmethoxy)pyridin-4-yl)-5-methyl-2-((2-methyl-4-(methylsulfonyl)piperazin-1-yl)methyl)thieno[3,2-c]pyridin-4(5H)-one] | ≤ 10

The remaining lines, values ahead:

Row | IC50 [µM] | SMILES
5 | ≤ 10 | CC(Oc1cncc(-c2cn(C)c(=O)c3cc(CN4CCN(S(C)(=O)=O)CC4)sc23)c1)c1ccccc1 (stereo not drawn) [Example 1, 5-methyl-2-((4-(methylsulphonyl)piperazin-1-yl)methyl)-7-(5-(1-phenylethoxy)pyridin-3-yl)thieno[3,2-c]pyridin-4(5H)-one hydrochloride]
6 | ≤ 10 | Cn1cc(-c2ccnc(OCC3CCOCC3)c2)c2sc(CN3CCN(S(C)(=O)=O)CC3)cc2c1=O [Example 7, 5-methyl-2-((4-(methylsulphonyl)piperazin-1-yl)methyl)-7-(2-((tetrahydro-2H-pyran-4-yl)methoxy)pyridin-4-yl)thieno[3,2-c]pyridin-4(5H)-one]
7 | ≤ 10 | CCCC[C@@H]1CN(Cc2cc3c(=O)n(C)cc(-c4ccc(OC)c(OC)c4)c3s2)CCN1 [Example 97, (R)-2-((3-butylpiperazin-1-yl)methyl)-7-(3,4-dimethoxyphenyl)-5-methylthieno[3,2-c]pyridin-4(5H)-one]

Tested on: Bromodomains BRD2, BRD3, BRD4 and BRDT, mutated proteins (BD1 or BD2)
Assay: TR-FRET assay: affinity of the fluoroligand for mutated versus non-mutated binding domain
Design: species or system Human
Details: single residue mutations in the acetyl lysine binding pocket
Experimental: (§1) Binding was assessed using a time resolved fluorescent resonance energy transfer binding assay. This utilises a 6 His purification tag at the N-terminal of the proteins as an epitope for an anti-6 His antibody labeled with Europium chelate (PerkinElmer AD0111) allowing binding of the Europium to the proteins which acts as the donor fluorophore. A small molecule, high affinity binder of the bromodomains BRD2, BRD3, BRD4 and BRDT has been labeled with Alexa Fluor647 (Reference Compound X) and this acts as the acceptor in the FRET pair.
The binding of the compounds of formula (I) to Bromodomains BRD2, BRD3, BRD4 and BRDT was assessed using mutated proteins to detect differential binding to either Binding Domain 1 (BD1) or Binding Domain 2 (BD2) on the bromodomain. These single residue mutations in the acetyl lysine binding pocket greatly lower the affinity of the fluoroligand (Reference Compound X) for the mutated domain (>1000 fold selective for the non-mutated domain). Therefore in the final assay conditions, binding of the fluoroligand to the mutated domain cannot be detected and subsequently the assay is suitable to determine the binding of compounds to the single non-mutated bromodomain. […]

Row | SMILES | Selectivity of the fluoroligand for the non-mutated domain over the mutated domain [fold]
8 | COc1ccc2c(c1)C(c1ccc(Cl)cc1)=N[C@@H](CC(=O)NCCCCCNC(=O)CCCCCC1(C)/C(=C/C=C/C=C/C3=[N+](CCCCS(=O)(=O)O)c4ccc(S(=O)(=O)O)cc4C3(C)C)N(CCCCS(=O)(=O)[O-])c3ccc(S(=O)(=O)O)cc31)c1nnc(C)n1-2 (stereo partly drawn) [Reference Compound X] | > 1000

Tested on: Bromodomain BRD4, mutated proteins (BD1 or BD2)
Assay: FP assay: affinity of the fluoroligand for mutated versus non-mutated binding domain
Design: species or system Human
Details: single residue mutations in the acetyl lysine binding pocket
Experimental: as §1, with “[…]” for “time resolved fluorescent resonance energy transfer”
The binding of the compounds of formula (I) to Bromodomain BRD4 was assessed using mutated proteins to detect differential binding to either Binding Domain 1 (BD1) or Binding Domain 2 (BD2) on the bromodomain. These single residue mutations in the acetyl lysine binding pocket greatly lower the affinity of the fluoroligand (Reference Compound X) for the mutated domain (>1000 fold selective for the non-mutated domain). Therefore in the final assay conditions, binding of the fluoroligand to the mutated domain cannot be detected and subsequently the assay is suitable to determine the binding of compounds to the single non-mutated bromodomain.
Protein Production: Recombinant Human Bromodomains [BRD4 (1-477) (Y97A) and (Y390A)] were expressed in E. coli cells (in pET15b vector) with a 6-His tag at the N-terminal. […]

Row | SMILES | Selectivity of the fluoroligand for the non-mutated domain over the mutated domain [fold]
9 | COc1ccc2c(c1)C(c1ccc(Cl)cc1)=N[C@@H](CC(=O)NCCCCCNC(=O)CCCCCC1(C)/C(=C/C=C/C=C/C3=[N+](CCCCS(=O)(=O)O)c4ccc(S(=O)(=O)O)cc4C3(C)C)N(CCCCS(=O)(=O)[O-])c3ccc(S(=O)(=O)O)cc31)c1nnc(C)n1-2 (stereo partly drawn) [Reference Compound X] | > 1000
